Results taken from patent US20220280526A1, “AGENT FOR THE TREATMENT OF PSORIASIS” (EBERHARD KARLS UNIVERSITAET TUEBINGEN MEDIZINISCHE FAKULTAET, priority 2019, published 2022).
“Also recorded” adds a separate entry of the source.

Tests used:
[1] = experimental animals; cited from earlier work
[2] = test system: B cell lymphoma xenografts; details: cited from earlier work
[3] = test system: non-Hodgkin's lymphoma / DLBCL cell lines; details: cited from earlier work; for effect on DLBCL cells with EZH2 (Y641) mutations: diffused large B cell lymphoma cells
SCLC cell lines = details: three SCLC cell lines; cited from earlier work
[4] = test system: wild-type and mutant EZH2; details: cited from earlier work
cutaneous melanomas = details: mice; cited from earlier work
H3K27me3 = details: cited from earlier work
[5] = test system: IMQ-induced psoriasis-like skin inflammation; assay: Imiquimod (IMQ)-mediated psoriasis mouse model, topical treatment of ears; assay type: in vivo, C57BL/6 mice
Description: Experiments were conducted in accordance with the German law guidelines of animal care. […] At day 7, mice were sacrificed and analysed. For IL-36α-mediated psoriasis induction, ears of male C57BL/6 mice (8-12 weeks old) were treated by intradermal injections using 1 μg murine IL-36α (aa 8-160, R&D) or PBS control for 5 consecutive days. […] Inhibitors were topically applicated 6 h before intradermal injections of IL-36α or PBS were applied. Mice were sacrificed and analysed at day 6.
Sample preparation was performed as described. The following anti-mouse antibodies from BioLegend were used: anti-CD45 FITC (103107), anti-CD11 b PacificBlue (101223), anti-Ly6G PE (127607), anti-F4/80 APC (123115), anti-CD11c Pacific Blue (117322), anti-MHC-II APC (107613), anti-CD172α PE (144011) and anti-Silec-H PE (129605). Anti-PDCA-1 APC (17-2092-80) and anti-αβTCR PE (HM3628) were purchased from Invitrogen, and anti-γδ-TCR APC (17-5711-82) from Sigma. Data was acquired on a LSRII flow cytometer (Becton Dickson).
Ear sections from mice were fixed in 10% formalin (Carl Roth) and subsequently embedded in paraffin. 5-μm sections were prepared and incubated with the following antibodies from Cell Signaling: pSTAT3 (9145), pRB (8516) and H3K27me3 (9733). For staining of human skin samples, EZH2 antibody (Cell Signaling, 5246) was used. Antigen retrieval was performed in 1 mM EDTA pH 8.0 for pSTAT3, and 10 mM citrate buffer pH 6.0+0.5% Triton X-100 for EZH2, H3K27me3 and pRB. After incubation with peroxidase-coupled secondary antibodies, sections were stained with DAB substrate.

[6] = test system: IL-36-mediated psoriasis-like dermatitis; assay: IL-36α-triggered psoriasis-like dermatitis mouse model, topical treatment of ears; assay type: in vivo, C57BL/6 mice
Description: Experiments were conducted in accordance with the German law guidelines of animal care. […] At day 7, mice were sacrificed and analysed. For IL-36α-mediated psoriasis induction, ears of male C57BL/6 mice (8-12 weeks old) were treated by intradermal injections using 1 μg murine IL-36α (aa 8-160, R&D) or PBS control for 5 consecutive days. […] Inhibitors were topically applicated 6 h before intradermal injections of IL-36α or PBS were applied. Mice were sacrificed and analysed at day 6. Ear sections from mice were fixed in 10% formalin (Carl Roth) and subsequently embedded in paraffin. 5-μm sections were prepared and incubated with the following antibodies from Cell Signaling: pSTAT3 (9145), pRB (8516) and H3K27me3 (9733). For staining of human skin samples, EZH2 antibody (Cell Signaling, 5246) was used. Antigen retrieval was performed in 1 mM EDTA pH 8.0 for pSTAT3, and 10 mM citrate buffer pH 6.0+0.5% Triton X-100 for EZH2, H3K27me3 and pRB. After incubation with peroxidase-coupled secondary antibodies, sections were stained with DAB substrate.

[7] = test system: prostate cancer cell lines; details: in vitro; cited from earlier work
[8] = flow cytometry of ears at day 7

## COc1cc(C)[nH]c(=O)c1CNC(=O)c1c(C)n([C@H](C)C2CCN(CC(F)(F)F)CC2)c2ccccc12 [CPI-1205]
[1]
  tolerability: well-tolerated

## CCN(c1cc(C#CCN2CCOCC2)cc(C(=O)NCc2c(C)cc(C)[nH]c2=O)c1C)[C@H]1CC[C@H](N(C)CCOC)CC1 [EPZ011989]
[2]; mouse
  tumor growth, xenograft model of human B cell lymphoma: significant tumor growth inhibition

## CCc1c(N(CC)C2CCOCC2)cc2oc(C3CCN(C(C)C)CC3)cc2c1C(=O)NCc1c(C)cc(C)[nH]c1=O [EBI-2511]
[2]; mouse
  efficacy in Pfeiffer tumor Xenograft models: high in vivo efficacy

## CC[C@H](C)n1cc(C)c2c(C(=O)NCc3c(C)cc(C)[nH]c3=O)cc(-c3ccc(N4CCNCC4)nc3)cc21 [GSK126]
[2]; mice
  growth of EZH2 mutant DLBCL xenografts: effectively inhibits
[3]
  effect on DLBCL cells with EZH2 (Y641) mutations: effectively inhibits proliferation
SCLC cell lines
  growth of SCLC cell lines: induces growth inhibition

## CCCc1cc(C)[nH]c(=O)c1CNC(=O)c1cc(-c2ccc(N3CCN(C(C)C)CC3)nc2)cc2c1cnn2C(C)C [UNC1999]
[3]
  effect on DLBCL cells with EZH2 (Y641) mutations: selectively killed
[4]
  difference in potency, wild-type vs mutant Y641N EZH2 methyltransferase activity: < 5 fold

## Cc1cc(C)c(CN2CCc3c(Cl)cc(-c4c(C)noc4C)c(Cl)c3C2=O)c(=O)[nH]1 [PF-06726304]
[2]; mouse, in vivo
  efficacy in diffuse large B-cell lymphoma Karpas-422 tumor model: good efficacy

## Cc1cc(C)c(CNC(=O)c2cc(-c3ccc(N4CCN(C)CC4)nc3)cc3c2c(C)cn3C(C)C)c(=O)[nH]1 [GSK503]
Cutaneous melanomas
  growth and metastasis of cutaneous melanomas: inhibits growth and metastasis

## CCC(CC)n1ccc2c(C(=O)NCc3c(C)cc(C)[nH]c3=O)cc(C#N)cc21 [EI1]
H3K27me3
  cellular H3K27me3 / H3K27 methylation: blocks
[3]
  effect on DLBCL cells with EZH2 (Y641) mutations: decreased proliferation, cell cycle arrest, and apoptosis

## CCS(=O)(=O)N1CCC([C@@H](C)n2c(C)c(C(=O)NCc3c(OC)cc(C)[nH]c3=O)c3ccccc32)CC1 [CPI-169]
H3K27me3
  cellular H3K27me3 / H3K27 methylation: decreases
[5]; ear skin sections of treated mice
  H3K27me3 expression in the epidermis (EZH2 inhibition): loss
[5]; [8]
  immune cell infiltration (neutrophils, macrophages, T cells): fully abrogated
  number of infiltrating plasmacytoid (pDC) and myeloid dendritic cells (mDC): significantly suppressed
[5]; immunoblot of skin tissue at day 7
  IκBζ expression, phosphorylation of EZH2 at T345 and of STAT3 at Y705 in the skin: completely abrogated
[5]; qPCR of skin samples at day 7
  expression of IκBζ target genes (Cxcl2, Cxcl5) and cytokines (Il17a, Il23a) in skin: significantly downregulated
[5]; topical daily for 6 days with IMQ, abemaciclib 0.02 mg, CPI-169 0.05 mg per ear/day, analysed day 7
  psoriasis-like skin inflammation (ear thickening, keratinocyte hyperproliferation, immune cell infiltration): completely suppressed; also recorded: completely suppressing
[3]; large panel of NHL cell lines
  effect on non-Hodgkin's lymphoma (NHL) cell lines: triggering cell cycle arrest and ultimately resulting in apoptosis
[6]; immunoblot of ear skin at day 6
  IL-36-mediated expression of IκBζ, phosphorylation of EZH2 at T345 and activation of STAT3 (pSTAT3 Y705) in skin: suppressed
[6]; intradermal IL-36α 5 days, topical inhibitor, abemaciclib 0.02 mg, CPI-169 0.05 mg, day 6
  keratinocyte hyperproliferation and immune cell infiltration: effectively blocked
[6]; qPCR of skin samples
  IκBζ target gene expression and key cytokine expression (Il17a, Il23a): effectively blocked

## CCCc1cc(C)[nH]c(=O)c1CNC(=O)c1cc(-c2ccnc(N3CCN(C)CC3)c2)cc2c1cnn2C(C)C [GSK343]
[7]
  proliferation of prostate cancer cell lines: inhibits proliferation
H3K27me3; breast cancer cells in vitro
  H3K27me3 levels: decrease
